Measurements published in patent US20230309522A1, “ANIMAL MODEL, METHODS FOR MAKING AND USING THEREOF, AND COMPOSITION FOR TREATING ATAXIA” (priority 2022, published 2023).
Marks after values point to notes of the source that are not given here.

Columns and labels:
Format in all cases: in vivo, mouse
[1] = tested on: C57BU6J mice; experiment: Footprint test on 3AP-induced ataxia mice
Excerpt: (§1) Four different behavior tests were used in the present disclosure: footprint, irregular ladder, rotarod and body balance (elevated beam) tests. These behavior tests have been widely used for detection of ataxia^40-42. Two different time durations were used to differentiate the peak and trough expressions of the Bmal1 gene. i.e., daytime described herein refers to seven hours later after light exposure (˜2 pm); nighttime described herein refers to four hours later after dim light ([…]). These behavior tests were carried out at daytime (˜2 pm) and nighttime (˜11 pm), given the differential expression of Bmal1 in cerebellum having the highest level at ˜2 pm and the lowest level at ˜11 pm.
Footprint test: Three measurements were included: i) front paw distance; ii) hind paw distance; and iii) stride. The footprint behavior tool was custom-made to have a narrow, foot-printable glass plate with the length of 85 cm and the width of 5 cm. Each paw distance was measured with footsteps printed during the walking across the narrow road.

[2] = tested on: Per1; experiment: Quantitative RT-PCR of brain regions, Per1 mRNA
Method: (§2) To prepare RNA by RT-PCR, mice were deeply anesthetized with isoflurane inhalation. […] Total RNA was extracted by TRIzol reagent-based procedure (Thermofisher scientific, USA) and quantified by NanoDrop 2000 spectrophotometer ([…], USA). The total RNA obtained (20 μg) was reverse-transcribed to synthesize complementary DNA (cDNA) using a first-strand cDNA synthesis kit (Takara. Japan). Quantitative assays were performed on each cDNA using the primers listed in Table 3 with SYBR® Premix Ex Taq™ (Takara, Japan) in the given cycling condition (95° C. for 30 seconds, 32 cycles of 95° C. for 5 seconds and 60° C. for 30 seconds), as provided by the manufacturer's instruction.

[3] = tested on: Bmal1; experiment: Quantitative RT-PCR of brain regions, Bmal1 mRNA
Method: as §2

[4] = tested on: Clock; experiment: Quantitative RT-PCR of brain regions, Clock mRNA
Method: as §2

[5] = tested on: C57BU6J mice; experiment: Rotarod test on 3AP-induced ataxia mice; settings: for motor learning, percentage change in rotarod performance: 3AP local; for rotarod-based motor behavior: 3AP-induced ataxia mice, FIG. 1C
Excerpt: as §1
Rotarod test: It has been widely used in determining general motor skills. In brief, mice walked on the rotarod with a width of 5 cm, a height of 20 cm and a diameter of 3 cm of rolling rods. The total time for mice to sustain on the rotarod in increasing speeds at a unit of revolution per minute (rpm) was taken for a measurement of motor skills such as balance and gait functions. Motor learning was calculated as a percentage change in the performance (at a maximum speed) over 5 min, 10 min or 15 min blocks sequentially.

[6] = tested on: Cry1; experiment: Quantitative RT-PCR of brain regions, Cry1 mRNA
Method: as §2

[7] = tested on: C57BU6J mice; experiment: Determining the least concentration of 3AP for induction of ataxia-like behaviors: survival time
Method: Six to seven-week-old C57BU6J and B6.129-Arnt1^tm1Bra/J (Bmal1 gene-deficient mice) male mice were used for all experiments described hereinafter. All experiments were performed on mice anesthetized by an intraperitoneal (i.p.) injection of 100 mg ketamine/kg and 20 mg xylazine/kg, based on their body weights.
In this example, a chemically-induced ataxia animal model was established upon systematic application of 3AP^19,20. Besides systematic (i.e. intraperitoneal, i.p., injection), local injection [in cerebellum, coordinate (Bregma): −7.08, 0, −2.1] of 3AP in C57BU6J mice could also be used to generate the chemically-induced ataxia animal models^23-25. Initially, different concentrations of 3AP were applied for determining the least concentration of 3AP for life-long induction of ataxia-like behaviors (Table 1).

[8] = tested on: Tyrosine Hydrolase (TH); experiment: Immunohistochemistry of substantia nigra compacta, Tyrosine Hydrolase expression; settings: 3AP ataxia model vs wildtype, FIGS. 6A and 6B
Method: (§3) The cerebellar tissue was isolated from anesthetized mice (six weeks old) and fixed with paraformaldehyde in […] (Thermofisher scientific, USA) and overnight at 4° C. The cerebellar tissue was then dehydrated by being incubated with PBS containing 30% sucrose at 4° C. then embedded in optimal cutting temperature (OCT) medium (Thermofisher scientific, USA) and frozen by using dry ice. The frozen tissues were cut with a cryostat (Thermo HM525NX Cryostat with UV Disinfection, Thermofisher scientific, USA) at 20 µm thickness and slices were placed on glass slides (Thermofisher scientific, USA). For immunohistochemical analysis, cerebellar tissue specimens were washed with PBS for 30 min and blocked with 10% bovine serum albumin (Sigma-Aldrich, USA) in PBST for 30 min at room temperature and then incubated with respective primary antibodies (Calbindin [8 μg/mL]: Invitrogen, USA; Tyrosine Hydrolase [1:400]: Invitrogen. USA) for overnight at 4° C. The specimens were further incubated with secondary antibodies (1:1500, Invitrogen. USA) for overnight at 4° C. […] The DAPI intensity and primary antibody (Calbindin or Tyrosine Hydrolase) intensity were recorded. The relative primary antibody intensity was calculated based on the following formula: […]

[9] = tested on: C57BU6J mice; experiment: Irregular ladder test on 3AP-induced ataxia mice
Excerpt: as §1
Irregular ladder test: A mouse was requested to walk through an irregularly arranged ladder with a distance of 85 cm and a width of 5 cm. Every single slip during walk steps was counted as a failure of gait and balance measurement.

[10] = tested on: C57BU6J mice; experiment: Elevated beam test on 3AP-induced ataxia mice
Excerpt: as §1
Elevated beam test: Every single slip was counted during the walking^43. Mice were requested to walk through a wall with a distance of 40 cm, a height of 16 cm and a width of 0.5 cm. All tests were conducted in a quiet environment without noise and bright light disturbance.

[11] = tested on: Calbindin; experiment: Immunohistochemistry of cerebellar tissue, relative calbindin intensity; settings: 3AP-injected mice, relative to WT 1.00, FIG. 3C
Method: as §3

Work on `CC(=O)c1cccnc1` [3AP, 3-acetyl pyridine] yielded a front paw distance ([1]; 35 mg/kg 3AP-injected mice, FIG. 1A, WT 1.084) of 0.832±0.112 cm, a hind paw distance ([1]; 35 mg/kg 3AP-injected mice, FIG. 1A, WT 2.09) of 4.67±0.208 cm and a stride ([1]; 35 mg/kg 3AP-injected mice, FIG. 1A, WT 5.27) of 1.11±0.088 cm. It also gave a hind paw distance ([1]; local 3AP-intoxicated mice without Bmal1 viral vector, FIG. 4C, wildtype 2.13) of 4.28±0.314 cm, a stride ([1]; local 3AP-intoxicated mice without Bmal1 viral vector, FIG. 4D, wildtype 5.02) of 1.10±0.124 cm and a front paw distance ([1]; local 3AP-intoxicated mice without Bmal1 viral vector, FIG. 4E, wildtype 1.12) of 1.10±0.053 cm. For the same compound, the “Relative level of mRNA, Per1” value ([2]; 25 mg 3AP, Cerebellum) was 0.81, the “Relative level of mRNA, Per1” value ([2]; 25 mg 3AP, Inferior Olive) was 0.88 and the “Relative level of mRNA, Per1” value ([2]; 25 mg 3AP, Motor cortex) was 0.87. For the same compound, the “Relative level of mRNA, Per1” value ([2]; 25 mg 3AP, Striatum) was 0.76, the “Relative level of mRNA, Per1” value ([2]; 35 mg 3AP, Cerebellum) was 0.77 and the “Relative level of mRNA, Per1” value ([2]; 35 mg 3AP, Inferior Olive) was 0.90. For the same compound, the “Relative level of mRNA, Per1” value ([2]; 35 mg 3AP, Motor cortex) was 0.87, the “Relative level of mRNA, Per1” value ([2]; 35 mg 3AP, Striatum) was 0.86 and the “Relative level of mRNA, Bmal1” value ([3]; 25 mg 3AP, Cerebellum) was 0.82. The “Relative level of mRNA, Bmal1” value ([3]; 25 mg 3AP, Inferior Olive) was 0.85, the “Relative level of mRNA, Bmal1” value ([3]; 25 mg 3AP, Motor cortex) was 0.93 and the “Relative level of mRNA, Bmal1” value ([3]; 25 mg 3AP, Striatum) was 0.94. The “Relative level of mRNA, Bmal1” value ([3]; 35 mg 3AP, Cerebellum, 0.00 = extremely low concentration or the absence of the gene tested) was 0.00***, the “Relative level of mRNA, Bmal1” value ([3]; 35 mg 3AP, Inferior Olive, 0.00 = extremely low concentration or the absence of the gene tested) was 0.00*** and the “Relative level of mRNA, Bmal1” value ([3]; 35 mg 3AP, Motor cortex, 0.00 = extremely low concentration or the absence of the gene tested) was 0.00***. The “Relative level of mRNA, Bmal1” value ([3]; 35 mg 3AP, Striatum, 0.00 = extremely low concentration or the absence of the gene tested) was 0.00***, the “mRNA expression of Bmal1” value ([3]; local 3AP-intoxicated mice vs wildtype control, daytime, FIG. 3B) was “far reduced” and the “Relative level of mRNA, Clock” value ([4]; 25 mg 3AP, Cerebellum) was 0.83. For the same compound, the “Relative level of mRNA, Clock” value ([4]; 25 mg 3AP, Inferior Olive) was 0.86, the “Relative level of mRNA, Clock” value ([4]; 25 mg 3AP, Motor cortex) was 0.93 and the “Relative level of mRNA, Clock” value ([4]; 25 mg 3AP, Striatum) was 0.77. The “Relative level of mRNA, Clock” value ([4]; 35 mg 3AP, Cerebellum) was 0.94, the “Relative level of mRNA, Clock” value ([4]; 35 mg 3AP, Inferior Olive) was 0.59* and the “Relative level of mRNA, Clock” value ([4]; 35 mg 3AP, Motor cortex) was 0.82. For the same compound, the “Relative level of mRNA, Clock” value ([4]; 35 mg 3AP, Striatum) was 0.87, the “performance in the rotarod test” value ([5]; 3AP local injection in the cerebellum, daytime, FIG. 2A, WT 29.32) was 14.32±1.02 rpm and the “motor learning, percentage change in rotarod performance” value (“motor learning, percentage change” for short) ([5]; training time 5 min, Wild Type 76.4) was −4.8 ± 4.22%. The “motor learning, percentage change” value ([5]; training time 10 min, Wild Type 88.6) was −4.1 ± 7.32%, the “motor learning, percentage change” value ([5]; training time 15 min, Wild Type 95.46) was −4.5 ± 4.12% and the rotarod-based motor behavior ([5]; day, WT day 28.00) was 14.57±1.38 rpm. The rotarod-based motor behavior ([5]; night, WT night 17.25) was 15.22±0.78 rpm, the rotarod performance ([5]; local 3AP-intoxicated mice without Bmal1 viral vector, FIG. 4G, wildtype 30) was 14.2±0.130 rpm and the “Relative level of mRNA, Cry1” value ([6]; 25 mg 3AP, Cerebellum) was 0.82. The “Relative level of mRNA, Cry1” value ([6]; 25 mg 3AP, Inferior Olive) was 0.74, the “Relative level of mRNA, Cry1” value ([6]; 25 mg 3AP, Motor cortex) was 0.87 and the “Relative level of mRNA, Cry1” value ([6]; 25 mg 3AP, Striatum) was 0.91. For the same compound, the “Relative level of mRNA, Cry1” value ([6]; 35 mg 3AP, Cerebellum) was 0.66, the “Relative level of mRNA, Cry1” value ([6]; 35 mg 3AP, Inferior Olive) was 0.70 and the “Relative level of mRNA, Cry1” value ([6]; 35 mg 3AP, Motor cortex) was 0.68. The “Relative level of mRNA, Cry1” value ([6]; 35 mg 3AP, Striatum) was 0.89, the Survival time ([7]; 0.05 mg/kg, stereotaxic local injection to the cerebellum) was “No ataxia” and the Survival time ([7]; 0.1 mg/kg, stereotaxic local injection to the cerebellum) was over 120 h. For the same compound, the Survival time ([7]; 0.15 mg/kg, stereotaxic local injection to the cerebellum) was “No survive”, the Survival time ([7]; 0.2 mg/kg, stereotaxic local injection to the cerebellum) was “No survive” and the Survival time ([7]; 25 mg/kg, intraperitoneal systematic injection) was “No ataxia”. For the same compound, the Survival time ([7]; 35 mg/kg, intraperitoneal systematic injection) was over 120 h, the Survival time ([7]; 45 mg/kg, intraperitoneal systematic injection) was 24 h and the Survival time ([7]; 50 mg/kg, intraperitoneal systematic injection) was 8 h. For the same compound, the Survival time ([7]; 65 mg/kg, intraperitoneal systematic injection) was 3 h, the Survival time ([7]; 70 mg/kg, intraperitoneal systematic injection) was 0.25 h and the “Tyrosine Hydrolase (TH) expression in substantia nigra compacta (SNc)” value [8] was “similarly expressed”. For the same compound, the “number of slips, irregular ladder” value ([9]; 3AP-induced ataxia mice, FIG. 1B, WT 1.61) was 8.92±0.178, the “number of slips, irregular ladder” value ([9]; local 3AP-intoxicated mice without Bmal1 viral vector, FIG. 4F, wildtype 0.87) was 11.2±0.075 and the “slips in the elevated beam test” value ([10]; 3AP local injection in the cerebellum, FIG. 2B, WT 0.87) was 10.46±0.92. The “number of slips, elevated beam” value ([10]; 3AP-induced ataxia mice, day, FIG. 1D, WT day 0.93) was 10.23±0.23, the “number of slips, elevated beam” value ([10]; 3AP-induced ataxia mice, night, FIG. 1D, WT night 9.92) was 10.24±0.23 and the “number of slips, elevated beam” value ([10]; local 3AP-intoxicated mice without Bmal1 viral vector, FIG. 4H, wildtype 0.85) was 10.7±0.176. For the same compound, the “expression of calbindin in the Purkinje cell layer (relative intensity)” value [11] was 0.123±0.052.
